Experimental data: patent US4390528A, “Tuftsinyl-tuftsin” (Research Corporation, priority 1981, dated 1983)
Where a SMILES comes first, the peptide text is derived from it. Where no end group is shown, it is not given here.

Key:
[1] = test system: Cloudman S-91 mouse melanoma cells; assay: Antineoplastic activity against Cloudman S-91 mouse melanoma cells
[2] = test system: L1210 mouse leukemia cells; assay: Antineoplastic activity against L1210 mouse leukemia cells
316 mouse melanoma cells = assay: Antineoplastic activity against 316 mouse melanoma cells
[3] = test system: blood polymorphonuclear leucocytes; assay: Stimulation of phagocytosis and pinocytosis; format: cell-based, mammals
Excerpt: It also stimulates pinocytosis to the same extent allowing the cells to obtain nourishment from the surrounding medium.

L1210 cells = assay: Survival of DBA/2 mice injected intraperitoneally with L1210 cells; format: in vivo, mouse; details: 25 DBA/2 mice, 20 μg intraperitoneally on days -7, -4 and 0; L1210 cells i.p. on day 0; control animals all dead by day 18
Experimental: In one experiment, 25 DBA/2 mice were injected each with 20 μg of the octapeptide intraperitoneally on days -7, -4 and 0. On the last mentioned day, L1210 cells were also injected intraperitoneally in experimental animals and solvent buffer alone in 25 control mice. The animals were observed daily and deaths recorded. The control animals were all dead by day 18, whereas the treated mice survived 32 days.

[4] = test system: blood polymorphonuclear leucocytes; details: especially neutrophilic leucocytes, in mammals, known for some time; cited from earlier work
[5] = test system: therapeutic action of tuftsin; assay: Inhibition of the therapeutic action of tuftsin; details: tripeptide formed by degradation of administered tuftsin
Experimental: Thus, if large amounts of tuftsin are administered, for example, parenterally a rather complex series of reactions takes place. One is the desired therapeutically useful reaction, another is the formation of the inhibitory tripeptide and the third is the inhibitory reaction. The rate of the last two reactions is, unfortunately, so high that the administration of higher doses of the therapeutic agent is counterproductive. As more is administered, more of the inhibitory tripeptide is produced and less of the tuftsin is available to fulfill its therapeutic purpose.

TKPRTKPR [Tuftsinyl-tuftsin, L-Threonyl-L-Lysyl-L-Prolyl-L-Arginyl-L-Threonyl-L-Lysyl-L-Prolyl-L-Arginine]
antineoplastic activity [1]: manifests antineoplastic activity
antineoplastic activity [2]: manifests antineoplastic activity
antineoplastic activity (316 mouse melanoma cells): manifests antineoplastic activity
stimulation of phagocytosis and pinocytosis [3]: stimulator of phagocytosis and pinocytosis
survival of treated mice (L1210 cells): 32 days

L-threonyl-L-lysyl-L-propyl-L-arginine [tuftsin]
stimulation of phagocytosis and destruction of bacteria by leucocytes [4]: has the ability to stimulate phagocytosis

N=C(N)NCCC[C@H](NC(=O)[C@@H]1CCCN1C(=O)[C@@H](N)CCCCN)C(=O)O [lysyl-prolyl-arginine] (H-Lys-Pro-Arg-OH)
effect on the therapeutic action of tuftsin [5]: acts as an inhibitor
